This is an account of results in publication PMC3057096 (Bioorganic & medicinal chemistry, 2010).

Structures are written as SMILES.

The conditions of data set [1]: cited from earlier work.
Another data set has as its system β-hematin (BH) formation. Nature of the data set: Inhibition of β-hematin. The class given is biochemical. Conditions: read-out: BH inhibition IC50.
The conditions of data set [2]: rodents; cited from earlier work.
Another data set has as its system P. falciparum (W2). It counts as cell-based. Conditions: Plasmodium falciparum, W2, read-out: P. falciparum (W2) IC50.
Data set [3] deals with P. berghei (sensitive strain). Nature of the data set: In vivo blood-schizontocidal antimalarial activity, rodent malaria model. The settings on record: for P. berghei: mice cured: dose of 25 mg/kg. Set-up: species or system mice.
Data set [4] has as its system methicillin-resistant Staphylococcus aureus ATCC 43300 (MRSA). Nature of the data set: In vitro antibacterial susceptibility testing. The class given is cell-based. The settings on record: ATCC43300|MRSA, read-out: MRSA MIC, NA = no activity at highest test concentration of 20 μg/mL.
In the next data set the test system is P. falciparum (D6). The class given is cell-based. The settings on record: Plasmodium falciparum, D6, read-out: P. falciparum (D6) IC50.
The subject of a further data set is Staphylococcus aureus. Nature of the data set: In vitro antibacterial susceptibility testing. It counts as cell-based. The settings on record: read-out: S. aureus IC50, 50% growth inhibition.

Usually IC50 stands for the midpoint of a concentration-inhibition curve. In the case of `COc1cc(NC(C)CCCN)c2ncccc2c1` (centres unmarked) [PQ, primaquine], the half life in data set [1] was 4 to 6 h. The IC50 in the data set with β-hematin (BH) formation was greater than 1000 µM. Besides, the “time at which two major metabolites start appearing in the blood” value in data set [2] is on record as “about 30 min”.

For `COc1cc(NC(C)CCCNC(=O)N[C@@H](CCCN)C(=O)NCCCC(C)Nc2cc(OC)cc3ccc(C(C)(C)C)nc23)c2nc(C(C)(C)C)ccc2c1.Cl` (stereo partly drawn) [Compound 42, N-{4-[(2-tert-butyl-6-methoxyquinolin-8-yl)amino]pentyl}-N^2-({4-[(2-tert-butyl-6methoxyquinolin-8-yl)amino]pentyl}carbamoyl)-D-ornithinamide·3HCl], the half-maximal inhibitory concentration (IC50) in the data set with P. falciparum (W2) was found to be 3.2 µg/mL.

`COc1cc(NC(C)CCCNCCNCCNCCCC(C)Nc2cc(OC)cc3cccnc23)c2ncccc2c1.Cl.Cl` (centres unmarked) [Compound 79, N^1,N^1′-(iminodiethane-2,1-diyl)bis[N^4-(6-methoxyquinolin-8-yl)pentane-1,4-diamine]·2HCl]: the “P. berghei in vivo activity class” value in data set [3] (10 mg/kg/day × 4, oral) is recorded as “Suppressive”; in data set [3] (25 mg/kg/day × 4, oral) it was “Curative”; in data set [3] (50 mg/kg/day × 4, oral), “Curative”; in data set [3] (100 mg/kg/day × 4, oral), “Curative”. Further, the “P. berghei: mice cured” value in data set [3] is 100%.

In the case of `COc1cc(NC(C)CCCNC(=O)C[C@@H](N)C(=O)NCCCC(C)Nc2cc(OC)cc3cccnc23)c2ncccc2c1.Cl` (stereo partly drawn) [Compound 64, N^1,N^4-Bis{4-[(6-methoxyquinolin-8-yl)amino]pentyl}-D-aspartamide·3HCl], the 50% inhibitory concentration (IC50) in the data set on P. falciparum (W2) amounted to 3.6 µg/mL.

Turning to `COc1cc(NC(C)CCCNC(=O)CC[C@H](N)C(=O)NCCCC(C)Nc2cc(OC)cc3ccc(C(C)(C)C)nc23)c2nc(C(C)(C)C)ccc2c1.Cl` (stereo partly drawn) [Compound 63, N^1,N^5-Bis{4-[(2-tert-butyl-6-methoxyquinolin-8-yl)amino]pentyl}-L-glutamamide·3HCl], in data set [3] (100 mg/kg/day × 4, oral), the “P. berghei in vivo activity class” value was “Inactive”.

Regarding `COc1cc(NC(C)CCCNC(=O)C[C@H](N)C(=O)NCCCC(C)Nc2cc(OC)cc3ccc(C(C)(C)C)nc23)c2nc(C(C)(C)C)ccc2c1.Cl` (stereo partly drawn) [Compound 62, N^1,N^4-Bis{4-[(2-tert-butyl-6-methoxyquinolin-8-yl)amino]pentyl}-L-aspartamide·3HCl], the “P. berghei in vivo activity class” value in data set [3] (100 mg/kg/day × 4, oral) was “Inactive”. The IC50 in the data set with P. falciparum (W2) was 3.2 µg/mL.

With `CCCCCOc1c(OC)cc(NC(C)CCCNC(=S)NCCCC(C)Nc2cc(OC)c(OCCCCC)c3c(CC)ccnc23)c2nccc(CC)c12.Cl.Cl` (centres unmarked) [Compound 71, 1,3-Bis{4-[4-ethyl-6-methoxy-5-(pentyloxy)quinolin-8-ylamino]pentyl}-thiourea·2HCl], the MIC in data set [4] is 5 to 20 µg/mL.

In the case of `COc1cc(NC(C)CCCNC(=S)NCCCC(C)Nc2cc(OC)cc3cccnc23)c2ncccc2c1.Cl.Cl` (centres unmarked) [Compound 67, 1,3-Bis{4-[(6-methoxyquinolin-8-yl)amino]pentyl}thiourea·2HCl], in data set [4], the MIC fell in the range of 5 to 20 µg/mL.

Turning to `COc1cc(NC(C)CCCNC(=O)N[C@@H](CCCNC(=N)N)C(=O)NCCCC(C)Nc2cc(OC)cc3cccnc23)c2ncccc2c1.Cl` (stereo partly drawn) [Compound 36, N-{4-[(6-methoxyquinolin-8-yl)amino]pentyl}-N^2-({4-[(6-methoxyquinolin-8-yl)-amino]pentyl}carbamoyl)-D-argininamide·3HCl], the IC50 in the data set with P. falciparum (D6) was 3.2 µg/mL; with P. falciparum (W2) it was 1.8 µg/mL. In addition, the “P. berghei in vivo activity class” value in data set [3] (50 mg/kg/day × 4, oral) is “Inactive”; in data set [3] (100 mg/kg/day × 4, oral) it was “Curative”.

With `COc1cc(NC(C)CCCNC(=O)c2cncc(C(=O)NCCCC(C)Nc3cc(OC)cc4ccc(C(C)(C)C)nc34)c2)c2nc(C(C)(C)C)ccc2c1.Cl` (centres unmarked) [Compound 85, N,N′-Bis{4-[(2-tert-butyl-6-methoxyquinolin-8-yl)amino]pentyl}pyridine-3,5-dicarboxamide·3HCl], the half-inhibitory concentration (IC50) came out at 2.7 µg/mL in the data set on P. falciparum (D6) and 1.8 µg/mL in the data set with P. falciparum (W2).

Take `COc1cc(NC(C)CCCNC(=O)N[C@H](CCCCN)C(=O)NCCCC(C)Nc2cc(OC)cc3cccnc23)c2ncccc2c1.Cl` (stereo partly drawn) [Compound 38, N-{4-[(6-methoxyquinolin-8-yl)amino]pentyl}-N^2-({4-[(6-methoxyquinolin-8-yl)-amino]pentyl}carbamoyl)-L-lysinamide·3HCl]: in the data set with P. falciparum (D6), the IC50 was determined as 3.6 µg/mL.

For `COc1cc(NC(C)CCCNC(=O)NC(=O)NCCCC(C)Nc2cc(OC)cc3cccnc23)c2ncccc2c1.Cl.Cl` (centres unmarked) [Compound 74, N,N′-Bis{4-[(6-methoxyquinolin-8-yl)amino]pentyl}dicarbonimidic diamide·2HCl], the “P. berghei in vivo activity class” value in data set [3] (100 mg/kg/day × 4, oral) was “Inactive”.

On to `COc1cc(NC(C)CCCNC(=O)N[C@H](CCCCN)C(=O)NCCCC(C)Nc2cc(OC)cc3ccc(C(C)(C)C)nc23)c2nc(C(C)(C)C)ccc2c1.Cl` (stereo partly drawn) [Compound 43, N-{4-[(2-tert-butyl-6-methoxyquinolin-8-yl)amino]pentyl}-N^2-({4-[(2-tert-butyl-6methoxyquinolin-8-yl)amino]pentyl}carbamoyl)-L-lysinamide·3HCl], for which the IC50 is 1.6 µg/mL in the data set with P. falciparum (D6) and 1.78 to 2.73 µg/mL in the data set with Staphylococcus aureus. The “P. berghei in vivo activity class” value in data set [3] (100 mg/kg/day × 4, oral) is on record as “Suppressive”.

As for `COc1cc(NC(C)CCCNC(=O)CC[C@H](N)C(=O)NCCCC(C)Nc2cc(OC)cc3cccnc23)c2ncccc2c1.Cl` (stereo partly drawn) [Compound 61, N^1,N^5-Bis{4-[(6-methoxyquinolin-8-yl)amino]pentyl}-L-glutamamide·3HCl], the IC50 with P. falciparum (D6) was 2.7 µg/mL; with P. falciparum (W2), 2.2 µg/mL. Further, the “P. berghei in vivo activity class” value in data set [3] (10 mg/kg/day × 4, oral) was “Suppressive”; in data set [3] (25 mg/kg/day × 4, oral), “Curative”; in data set [3] (50 mg/kg/day × 4, oral), “Curative”; in data set [3] (100 mg/kg/day × 4, oral), “Curative”. Besides, the “P. berghei: mice cured” value in data set [3] was found to be 100%.

On to `COc1cc(NC(C)CCCNC(=O)N[C@@H](CCCN)C(=O)NCCCC(C)Nc2cc(OC)cc3cccnc23)c2ncccc2c1.Cl` (stereo partly drawn) [Compound 37, N-{4-[(6-methoxyquinolin-8-yl)amino]pentyl}-N^2-({4-[(6-methoxyquinolin-8-yl)-amino]pentyl}carbamoyl)-D-ornithinamide·3HCl], for which the “P. berghei in vivo activity class” value in data set [3] (100 mg/kg/day × 4, oral) is reported as “Inactive”.

Consider `COc1cc(NC(C)CCCNC(=O)NCCCC(C)Nc2cc(OC)cc3ccc(C(C)(C)C)nc23)c2nc(C(C)(C)C)ccc2c1.Cl.Cl` (centres unmarked) [Compound 68, 1,3-Bis{4-[(2-tert-butyl-6-methoxyquinolin-8-yl)amino]pentyl}urea·2HCl], for which, in data set [3] (100 mg/kg/day × 4, oral), the “P. berghei in vivo activity class” value is on record as “Inactive”. For the same compound, the half-inhibitory concentration (IC50) with P. falciparum (W2) came to 3.7 µg/mL.

Consider `COc1cc(NC(C)CCCNCOC(=O)NCCCC(C)Nc2cc(OC)cc3cccnc23)c2ncccc2c1.Cl.Cl` (centres unmarked) [Compound 76, ({4-[(6-Methoxyquinolin-8-yl)amino]pentyl}amino)methyl{4-[(6-methoxy-quinolin-8-yl)amino]pentyl}carbamate·2HCl], for which, in data set [3] (100 mg/kg/day × 4, oral), the “P. berghei in vivo activity class” value is “Suppressive”.

As to `COc1cc(NC(C)CCCNC(=O)NCCCC(C)Nc2cc(OC)cc3cccnc23)c2ncccc2c1.Cl.Cl` (centres unmarked) [Compound 66, 1,3-Bis{4-[(6-methoxyquinolin-8-yl)amino]pentyl}urea·2HCl], the “P. berghei in vivo activity class” value in data set [3] (100 mg/kg/day × 4, oral) is given as “Inactive”.
